Assay results as given in ChEMBL document CHEMBL4308841, “Synthesis, in vitro antiproliferative activity, and kinase inhibitory effects of pyrazole-containing diarylureas and diarylamides” (Eur J Med Chem, 2018).

What was measured:
HL-60(TB) = assay: Growth inhibition of human HL-60(TB) cells incubated for 48 hrs by sulforhodamine B assay; assay type: functional, cell-based; conditions: HL-60, 48 h
NCI-H23 = assay: Growth inhibition of human NCI-H23 cells incubated for 48 hrs by sulforhodamine B assay; assay type: functional, cell-based; conditions: NCI-H23, 48 h
SF-539 = assay: Growth inhibition of human SF539 cells incubated for 48 hrs by sulforhodamine B assay; assay type: functional, cell-based; conditions: SF-539, 48 h
UACC-257 = assay: Growth inhibition of human UACC257 cells incubated for 48 hrs by sulforhodamine B assay; assay type: functional, cell-based; conditions: UACC-257, 48 h
OVCAR-8 = assay: Growth inhibition of human OVCAR8 cells incubated for 48 hrs by sulforhodamine B assay; assay type: functional, cell-based; conditions: OVCAR-8, 48 h
NCI/ADR-RES = assay: Growth inhibition of human NCI/ADR-RES cells incubated for 48 hrs by sulforhodamine B assay; assay type: functional, cell-based
UO-31 = assay: Growth inhibition of human UO31 cells incubated for 48 hrs by sulforhodamine B assay; assay type: functional, cell-based; conditions: UO-31, 48 h
DU-145 = assay: Growth inhibition of human DU145 cells incubated for 48 hrs by sulforhodamine B assay; assay type: functional, cell-based; conditions: DU-145, 48 h
BT-549 [1] = assay: Growth inhibition of human BT549 cells incubated for 48 hrs by sulforhodamine B assay; assay type: functional, cell-based; conditions: BT-549, 48 h
MOLT-4 = assay: Growth inhibition of human MOLT4 cells assessed as cell growth at 0.01 uM incubated for 48 hrs by sulforhodamine B assay relative to control; assay type: functional; conditions: MOLT-4, 48 h, read-out: Activity
NCI-H522 = assay: Growth inhibition of human NCI-H522 cells assessed as cell growth at 0.01 uM incubated for 48 hrs by sulforhodamine B assay relative to control; assay type: functional; conditions: NCI-H522, 48 h, read-out: Activity
SK-MEL-28 [2] = assay: Growth inhibition of human SK-MEL-28 cells assessed as cell growth at 0.01 uM incubated for 48 hrs by sulforhodamine B assay relative to control; assay type: functional; conditions: SK-MEL-28, 48 h, read-out: Activity
OVCAR-3 [3] = assay: Growth inhibition of human OVCAR3 cells assessed as cell growth at 0.01 uM incubated for 48 hrs by sulforhodamine B assay relative to control; assay type: functional; conditions: OVCAR-3, 48 h, read-out: Activity
ACHN = assay: Growth inhibition of human ACHN cells assessed as cell growth at 0.01 uM incubated for 48 hrs by sulforhodamine B assay relative to control; assay type: functional; conditions: read-out: Activity
CCRF-CEM [4] = assay: Growth inhibition of human CCRF-CEM cells assessed as cell growth at 0.1 uM incubated for 48 hrs by sulforhodamine B assay relative to control; assay type: functional; conditions: read-out: Activity
NCI-H322M = assay: Growth inhibition of human NCI-H322M cells assessed as cell growth at 0.1 uM incubated for 48 hrs by sulforhodamine B assay relative to control; assay type: functional; conditions: read-out: Activity
KM12 = assay: Growth inhibition of human KM12 cells assessed as cell growth at 0.1 uM incubated for 48 hrs by sulforhodamine B assay relative to control; assay type: functional; conditions: KM12, 48 h, read-out: Activity
SK-MEL-28 [5] = assay: Growth inhibition of human SK-MEL-28 cells assessed as cell growth at 0.1 uM incubated for 48 hrs by sulforhodamine B assay relative to control; assay type: functional; conditions: SK-MEL-28, 48 h, read-out: Activity
T47D = assay: Growth inhibition of human T47D cells assessed as cell growth at 0.1 uM incubated for 48 hrs by sulforhodamine B assay relative to control; assay type: functional; conditions: read-out: Activity
CCRF-CEM [6] = assay: Growth inhibition of human CCRF-CEM cells assessed as cell growth at 1 uM incubated for 48 hrs by sulforhodamine B assay relative to control; assay type: functional; conditions: read-out: Activity
RPMI-8226 = assay: Growth inhibition of human RPMI8226 cells assessed as cell growth at 1 uM incubated for 48 hrs by sulforhodamine B assay relative to control; assay type: functional; conditions: RPMI-8226, 48 h, read-out: Activity
SK-MEL-2 = assay: Growth inhibition of human SK-MEL-2 cells assessed as cell growth at 1 uM incubated for 48 hrs by sulforhodamine B assay relative to control; assay type: functional; conditions: SK-MEL-2, 48 h, read-out: Activity
CAKI-1 = assay: Growth inhibition of human Caki1 cells assessed as cell growth at 1 uM incubated for 48 hrs by sulforhodamine B assay relative to control; assay type: functional; conditions: CAKI-1, 48 h, read-out: Activity
PC-3 = assay: Growth inhibition of human PC3 cells assessed as cell growth at 1 uM incubated for 48 hrs by sulforhodamine B assay relative to control; assay type: functional; conditions: PC-3, 48 h, read-out: Activity
MDA-MB-231 = assay: Growth inhibition of human MDA-MB-231 cells assessed as cell growth at 1 uM incubated for 48 hrs by sulforhodamine B assay relative to control; assay type: functional; conditions: MDA-MB-231, 48 h, read-out: Activity
Malme-3M = assay: Growth inhibition of human MALME-3M cells assessed as cell growth at 100 uM incubated for 48 hrs by sulforhodamine B assay relative to control; assay type: functional; conditions: read-out: Activity
OVCAR-3 [7] = assay: Growth inhibition of human OVCAR3 cells assessed as cell growth at 100 uM incubated for 48 hrs by sulforhodamine B assay relative to control; assay type: functional; conditions: OVCAR-3, 48 h, read-out: Activity
BT-549 [8] = assay: Growth inhibition of human BT549 cells assessed as cell growth at 100 uM incubated for 48 hrs by sulforhodamine B assay relative to control; assay type: functional; conditions: BT-549, 48 h, read-out: Activity
[9] = read-out: LC50 (the source's name)
[10] = read-out: pLC50 (the source's name) (converted)

O=C(Nc1cccc(-n2cc(-c3ccncc3)c(-c3cc(O)cc(Cl)c3)n2)c1)c1ccc(N2CCOCC2)c(C(F)(F)F)c1
GI50 (HL-60(TB); read-out: GI50): 0.81 µM
LC50 (HL-60(TB); read-out: LC50): > 100 µM
TGI (HL-60(TB); read-out: TGI): 30.4 µM
GI50 (HL-60(TB); read-out: pGI50 (converted)): 0.813 µM
LC50 (HL-60(TB); read-out: pLC50 (converted)): > 100 µM
TGI (HL-60(TB); read-out: pTGI (converted)): 3.02 µM
GI50 (NCI-H23; read-out: GI50): 3.56 µM
LC50 (NCI-H23; read-out: LC50): > 100 µM
TGI (NCI-H23; read-out: TGI): 38.8 µM
GI50 (NCI-H23; read-out: pGI50 (converted)): 3.63 µM
LC50 (NCI-H23; read-out: pLC50 (converted)): > 100 µM
TGI (NCI-H23; read-out: pTGI (converted)): 38.9 µM
GI50 (SF-539; read-out: GI50): 1.44 µM
CC50 (SF-539; [9]): > 100 µM
TGI (SF-539; read-out: TGI): 44.7 µM
GI50 (SF-539; read-out: pGI50 (converted)): 1.45 µM
CC50 (SF-539; [10]): > 100 µM
TGI (SF-539; read-out: pTGI (converted)): 4.47 µM
GI50 (UACC-257; read-out: GI50): 2.36 µM
CC50 (UACC-257; [9]): > 100 µM
TGI (UACC-257; read-out: TGI): 84 µM
GI50 (UACC-257; read-out: pGI50 (converted)): 2.34 µM
CC50 (UACC-257; [10]): > 100 µM
TGI (UACC-257; read-out: pTGI (converted)): 8.51 µM
GI50 (OVCAR-8; read-out: GI50): 15.4 µM
CC50 (OVCAR-8; [9]): > 100 µM
TGI (OVCAR-8; read-out: TGI): > 100 µM
GI50 (OVCAR-8; read-out: pGI50 (converted)): 1.62 µM
CC50 (OVCAR-8; [10]): > 100 µM
TGI (OVCAR-8; read-out: pTGI (converted)): > 100 µM
GI50 (NCI/ADR-RES; read-out: GI50): 45.9 µM
CC50 (NCI/ADR-RES; [9]): > 100 µM
TGI (NCI/ADR-RES; read-out: TGI): > 100 µM
GI50 (NCI/ADR-RES; read-out: pGI50 (converted)): 4.57 µM
CC50 (NCI/ADR-RES; [10]): > 100 µM
TGI (NCI/ADR-RES; read-out: pTGI (converted)): > 100 µM
IC50 (UO-31): 1.41 µM
GI50 (UO-31; read-out: GI50): 1.41 µM
CC50 (UO-31; [9]): > 100 µM
TGI (UO-31; read-out: TGI): 15.5 µM
GI50 (UO-31; read-out: pGI50 (converted)): 1.12 µM
CC50 (UO-31; [10]): > 100 µM
TGI (UO-31; read-out: pTGI (converted)): 15.5 µM
GI50 (DU-145; read-out: GI50): 5.55 µM
CC50 (DU-145; [9]): > 100 µM
TGI (DU-145; read-out: TGI): > 100 µM
GI50 (DU-145; read-out: pGI50 (converted)): 5.62 µM
CC50 (DU-145; [10]): > 100 µM
TGI (DU-145; read-out: pTGI (converted)): > 100 µM
GI50 (BT-549 [1]; read-out: GI50): 4.21 µM
CC50 (BT-549 [1]; [9]): > 100 µM
TGI (BT-549 [1]; read-out: TGI): > 100 µM
GI50 (BT-549 [1]; read-out: pGI50 (converted)): 4.17 µM
CC50 (BT-549 [1]; [10]): > 100 µM
TGI (BT-549 [1]; read-out: pTGI (converted)): > 100 µM
growth at 0.01 µM (MOLT-4): 93%
growth at 0.01 µM (NCI-H522): 50%
growth at 0.01 µM (SK-MEL-28 [2]): 99%
growth at 0.01 µM (OVCAR-3 [3]): 111%
growth at 0.01 µM (ACHN): 100%
growth at 0.1 µM (CCRF-CEM [4]): 95%
growth at 0.1 µM (NCI-H322M): 97%
growth at 0.1 µM (KM12): 105%
growth at 0.1 µM (SK-MEL-28 [5]): 94%
growth at 0.1 µM (T47D): 98%
growth at 1 µM (CCRF-CEM [6]): 34%
growth at 1 µM (RPMI-8226): 17%
growth at 1 µM (SK-MEL-2): 77%
growth at 1 µM (CAKI-1): 53%
growth at 1 µM (PC-3): 51%
growth at 1 µM (MDA-MB-231): 11%
growth at 100 µM (Malme-3M): -25%
growth at 100 µM (OVCAR-3 [7]): 30%
growth at 100 µM (BT-549 [8]): 17%
